Data on three molecules can be found in paper PMC3463134 (Chembiochem : a European journal of chemical biology, 2012).

One data set has as its target T1, KtzI (Kutzneria sp. 744, UniProt A8CF85).
T1 sequence (A8CF85 1-424): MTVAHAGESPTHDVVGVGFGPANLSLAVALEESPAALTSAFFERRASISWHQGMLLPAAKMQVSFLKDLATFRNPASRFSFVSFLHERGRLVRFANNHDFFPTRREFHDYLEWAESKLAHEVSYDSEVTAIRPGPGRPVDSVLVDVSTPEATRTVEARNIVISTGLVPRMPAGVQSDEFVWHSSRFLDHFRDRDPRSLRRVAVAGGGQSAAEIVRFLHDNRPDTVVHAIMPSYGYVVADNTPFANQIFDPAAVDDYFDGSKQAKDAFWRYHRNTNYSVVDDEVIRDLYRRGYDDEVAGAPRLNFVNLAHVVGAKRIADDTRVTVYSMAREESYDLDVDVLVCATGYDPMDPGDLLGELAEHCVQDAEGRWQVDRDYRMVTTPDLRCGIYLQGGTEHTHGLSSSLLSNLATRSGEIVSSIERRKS
The experiment in a line: NADPH oxidation assay. It is filed as biochemical. As to conditions: FAD, non-substrate effector (uncoupled NADPH oxidation).

Substrate in the data set “purified protein”: NCCC[C@H](N)C(=O)O
The experiment in a line: purified protein. Particulars: FAD cofactor; NAD(P)H and O2 cosubstrates; apparent kcat.

Consider `NCCC[C@@H](N)C(=O)O` [D-Orn], for which, at KtzI, the NADPH oxidation assay entry is “L-Lys and D-Orn were observed to be non-substrate effectors of the enzyme”.

In the case of `NCCCC[C@H](N)C(=O)O` [L-Lys], at KtzI, the NADPH oxidation assay result is “L-Lys and D-Orn were observed to be non-substrate effectors of the enzyme”.

B1: KtzI (Kutzneria sp. 744) (protein)
chain: T1 sequence (A8CF85 1-424)
Consider B1, for which, in the data set “purified protein”, the Michaelis-Menten constant (Km) – broadly, the concentration of substrate that gives half-maximal velocity – was 91 ± 8 µM; the kcat (usually the number of substrate molecules converted per active site and unit of time at saturation) is 0.116 ± 0.00217 s⁻¹.
